Experimental data as given in patent US20100267561A1, “HERBICIDAL PYRIDAZINONE DERIVATIVES” (priority 2007, published 2010).

What was measured:
Type in all cases: in vivo
canola (Brassica rapa) = experiment: Test C pre-/postemergence plant response
How it was run: (§1)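 Test chemicals in a non-phytotoxic solvent with surfactant were applied preemergence, and some were also applied postemergence to plants 2–18 cm tall (1- to 4-leaf stage). Visual ratings against controls were made after 15–25 days in a controlled environment, on a 0–100 scale where 100 means complete control.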

[1] = test system: windgrass (Apera spica-venti); experiment: Test C pre-/postemergence plant response
How it was run: as §1

[2] = test system: winter barley (Hordeum vulgare); experiment: Test C pre-/postemergence plant response
How it was run: as §1

[3] = test system: spring wheat (Triticum aestivum); experiment: Test C pre-/postemergence plant response
How it was run: as §1

[4] = test system: common groundsel (Senecio vulgaris); experiment: Test E pre-/postemergence plant response; conditions: scale 0 to 100
How it was run: (§2)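 Pre- and postemergence greenhouse test; compounds formulated in non-phytotoxic solvent with surfactant, postemergence plants 2–18 cm (1- to 4-leaf stage). Visual rating against untreated controls after 14 to 21 days, on a 0 (no effect) to 100 (complete control) scale.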

[5] = test system: Italian ryegrass (Lolium multiflorum); experiment: Test E pre-/postemergence plant response; conditions: scale 0 to 100
How it was run: as §2

[6] = test system: southern (S.) sandbur (Cenchrus echinatus); experiment: Test E pre-/postemergence plant response; conditions: scale 0 to 100
How it was run: as §2

[7] = test system: naked crabgrass (Digitaria nuda); experiment: Test E pre-/postemergence plant response; conditions: scale 0 to 100
How it was run: as §2

[8] = test system: barnyardgrass (Echinochloa crus-galli); experiment: Test E pre-/postemergence plant response
How it was run: as §2

[9] = test system: pitted morningglory (Ipomoea lacunosa); experiment: Test E pre-/postemergence plant response; conditions: scale 0 to 100
How it was run: as §2

[10] = test system: common chickweed (Stellaria media); experiment: Test E pre-/postemergence plant response; conditions: 4 g ai/ha, Postemergence, scale 0 to 100
How it was run: as §2

[11] = test system: johnsongrass (Sorghum halepense); experiment: Test E pre-/postemergence plant response; conditions: scale 0 to 100
How it was run: as §2

[12] = test system: annual bluegrass (Poa annua); experiment: Test E pre-/postemergence plant response; conditions: scale 0 to 100
How it was run: as §2

[13] = Postemergence, 8 g ai/ha, scale 0 to 100, 0 no effect, 100 complete control
[14] = Postemergence, 16 g ai/ha, scale 0 to 100, 0 no effect, 100 complete control
[15] = Postemergence, 31 g ai/ha, scale 0 to 100, 0 no effect, 100 complete control
[16] = Postemergence, 62 g ai/ha, scale 0 to 100, 0 no effect, 100 complete control
[17] = Preemergence, 8 g ai/ha, scale 0 to 100 (0 no effect, 100 complete control)
[18] = Preemergence, 16 g ai/ha, scale 0 to 100 (0 no effect, 100 complete control)
[19] = Preemergence, 31 g ai/ha, scale 0 to 100 (0 no effect, 100 complete control)
[20] = Preemergence, 62 g ai/ha, scale 0 to 100, 0 no effect, 100 complete control

CCc1cc(-c2ccc(C(F)(F)F)cc2)nn1-c1c(OS(C)(=O)=O)cnn(C)c1=O [Compound 19]
100: Plant response rating, Windgrass [1, 14] | Plant response rating, Windgrass [1, 15] | Plant response rating, Windgrass [1, 16] | Plant response rating, Windgrass [1, 17] | Plant response rating, Windgrass [1, 18] | Plant response rating, Windgrass [1, 19] | Plant response rating, Windgrass [1, 20] | Plant response rating, Barley, Winter [2, 15] | Plant response rating, Barley, Winter [2, 16] | Plant response rating, Wheat, Spring [3, 16] | Plant response rating, Ryegrass, Italian ([5]; 16 g ai/ha, Preemergence) | Plant response rating, Ryegrass, Italian ([5]; 31 g ai/ha, Preemergence) | Plant response rating, Ryegrass, Italian ([5]; Postemergence, 16 g ai/ha) | Plant response rating, Ryegrass, Italian ([5]; Postemergence, 31 g ai/ha) | Plant response rating, Sandbur, S. ([6]; Postemergence, 31 g ai/ha) | Plant response rating, Barnyardgrass ([8]; 31 g ai/ha, Preemergence, scale 0 to 100) | Plant response rating, Barnyardgrass ([8]; Postemergence, 16 g ai/ha, scale 0 to 100) | Plant response rating, Barnyardgrass ([8]; Postemergence, 31 g ai/ha, scale 0 to 100) | Plant response rating, Johnsongrass ([11]; Postemergence, 16 g ai/ha) | Plant response rating, Johnsongrass ([11]; Postemergence, 31 g ai/ha)
35: Plant response rating, Crabgrass, Naked ([7]; Preemergence, 4 g ai/ha)
98: Plant response rating, Sandbur, S. ([6]; Postemergence, 8 g ai/ha) | Plant response rating, Sandbur, S. ([6]; Postemergence, 16 g ai/ha) | Plant response rating, Crabgrass, Naked ([7]; 8 g ai/ha, Preemergence) | Plant response rating, Crabgrass, Naked ([7]; 31 g ai/ha, Preemergence) | Plant response rating, Crabgrass, Naked ([7]; Postemergence, 31 g ai/ha) | Plant response rating, Barnyardgrass ([8]; Postemergence, 8 g ai/ha, scale 0 to 100) | Plant response rating, Johnsongrass ([11]; 31 g ai/ha, Preemergence)
20: Plant response rating, Barley, Winter [2, 13] | Plant response rating, Barley, Winter [2, 17]
60: Plant response rating, Wheat, Spring [3, 19]
40: Plant response rating, Barley, Winter [2, 18] | Plant response rating, Wheat, Spring [3, 18] | Plant response rating, Crabgrass, Naked ([7]; 4 g ai/ha, Postemergence)
70: Plant response rating, Wheat, Spring [3, 13]
75: Plant response rating, Barley, Winter [2, 19] | Plant response rating, Wheat, Spring [3, 20] | Plant response rating, Barnyardgrass ([8]; 8 g ai/ha, Preemergence, scale 0 to 100) | Plant response rating, Johnsongrass ([11]; Preemergence, 4 g ai/ha)
90: Plant response rating, Wheat, Spring [3, 15] | Plant response rating, Ryegrass, Italian ([5]; Postemergence, 8 g ai/ha) | Plant response rating, Sandbur, S. ([6]; 4 g ai/ha, Postemergence) | Plant response rating, Crabgrass, Naked ([7]; Postemergence, 16 g ai/ha) | Plant response rating, Barnyardgrass ([8]; 4 g ai/ha, Postemergence, scale 0 to 100) | Plant response rating, Johnsongrass ([11]; 4 g ai/ha, Postemergence) | Plant response rating, Johnsongrass ([11]; Postemergence, 8 g ai/ha)
80: Plant response rating, Windgrass [1, 13] | Plant response rating, Barley, Winter [2, 20] | Plant response rating, Wheat, Spring [3, 14] | Plant response rating, Sandbur, S. ([6]; 16 g ai/ha, Preemergence)
95: Plant response rating, Sandbur, S. ([6]; 31 g ai/ha, Preemergence) | Plant response rating, Barnyardgrass ([8]; 16 g ai/ha, Preemergence, scale 0 to 100) | Plant response rating, Johnsongrass ([11]; 16 g ai/ha, Preemergence)
85: Plant response rating, Crabgrass, Naked ([7]; Postemergence, 8 g ai/ha)
0: Plant response rating, Canola (canola (Brassica rapa); [13]) | Plant response rating, Canola (canola (Brassica rapa); [14]) | Plant response rating, Canola (canola (Brassica rapa); [15]) | Plant response rating, Canola (canola (Brassica rapa); [16]) | Plant response rating, Canola (canola (Brassica rapa); [17]) | Plant response rating, Canola (canola (Brassica rapa); [18]) | Plant response rating, Canola (canola (Brassica rapa); [19]) | Plant response rating, Canola (canola (Brassica rapa); [20]) | Plant response rating, Wheat, Spring [3, 17] | Plant response rating, Groundsel ([4]; 4 g ai/ha, Postemergence) | Plant response rating, Groundsel ([4]; 16 g ai/ha, Preemergence) | Plant response rating, Groundsel ([4]; 31 g ai/ha, Preemergence) | Plant response rating, Groundsel ([4]; Postemergence, 8 g ai/ha) | Plant response rating, Groundsel ([4]; Postemergence, 16 g ai/ha) | Plant response rating, Groundsel ([4]; Postemergence, 31 g ai/ha) | Plant response rating, Groundsel ([4]; Preemergence, 4 g ai/ha) | Plant response rating, Sandbur, S. ([6]; Preemergence, 4 g ai/ha) | Plant response rating, Barnyardgrass ([8]; Preemergence, 4 g ai/ha, scale 0 to 100, 0 no effect, 100 complete control) | Plant response rating, Morningglory ([9]; 4 g ai/ha, Postemergence) | Plant response rating, Morningglory ([9]; 16 g ai/ha, Preemergence) | Plant response rating, Morningglory ([9]; 31 g ai/ha, Preemergence) | Plant response rating, Morningglory ([9]; Postemergence, 8 g ai/ha) | Plant response rating, Morningglory ([9]; Postemergence, 16 g ai/ha) | Plant response rating, Morningglory ([9]; Postemergence, 31 g ai/ha) | Plant response rating, Morningglory ([9]; Preemergence, 4 g ai/ha) | Plant response rating, Chickweed [10] | Plant response rating, Bluegrass ([12]; 4 g ai/ha, Postemergence) | Plant response rating, Bluegrass ([12]; 8 g ai/ha, Preemergence) | Plant response rating, Bluegrass ([12]; 16 g ai/ha, Preemergence) | Plant response rating, Bluegrass ([12]; 31 g ai/ha, Preemergence) | Plant response rating, Bluegrass ([12]; Postemergence, 8 g ai/ha) | Plant response rating, Bluegrass ([12]; Postemergence, 16 g ai/ha) | Plant response rating, Bluegrass ([12]; Postemergence, 31 g ai/ha) | Plant response rating, Bluegrass ([12]; Preemergence, 4 g ai/ha)
50: Plant response rating, Barley, Winter [2, 14] | Plant response rating, Ryegrass, Italian ([5]; 4 g ai/ha, Postemergence)
65: Plant response rating, Ryegrass, Italian ([5]; Preemergence, 4 g ai/ha)
